System: cataracts in rats
Assay: Prevention or retardation of cataracts in galactose-fed rats
Format: in vivo, rat
Conditions: 30% galactose diet, A,C,E 0.0025%, B,D 0.01%
Procedure: The compounds to be tested were:
Test compound/diet mixtures were formulated as follows: […]
Similarly, the 0.01% level was designed to provide a drug concentration of 20 mg per kilogram per day.
All animals were fed the Purina Laboratory Chow and water, ad libitum for a two day acclimatization period. The indicated test compound/diet mixture then was introduced to all animals on Study Day 1 and the animals were maintained on this diet throughout thirty days of the study.
Sufficient amounts of test compound/diet mixture were maintained in the food hoppers to allow the animals to eat ad libitum. All aliquots of test compound/diet mixture added to the food hoopers were weighed and the weights, as well as day of addition, recorded.
Twelve animals were assigned to each treatment with each compound at the indicated percentage by total weight of feed. All eyes were examined with a handheld ophthalmoscope and/or penlight.

CSc1ccc2c(c1)C1(CCO2)NC(=O)NC1=O (stereo not shown) [B]
% of Total Eyes, + (vacuole) (Study Day 2): 0%
% of Total Eyes, - (Normal) (Study Day 2): 100.0%
% of Total Eyes, N (nuclear cataract) (Study Day 2): 0%
% of Total Eyes, S (snowflake) (Study Day 2): 0%
Number of Eyes Observed, + (vacuole) (Study Day 2): 0 eyes
Number of Eyes Observed, - (Normal) (Study Day 2): 24 eyes
Number of Eyes Observed, N (nuclear cataract) (Study Day 2): 0 eyes
Number of Eyes Observed, S (snowflake) (Study Day 2): 0 eyes
Number of Eyes Observed, ± (Study Day 2): 0 eyes
% of Total Eyes, + (vacuole) (Study Day 3): 0%
% of Total Eyes, - (Normal) (Study Day 3): 100.0%
% of Total Eyes, N (nuclear cataract) (Study Day 3): 0%
% of Total Eyes, S (snowflake) (Study Day 3): 0%
Number of Eyes Observed, + (vacuole) (Study Day 3): 0 eyes
Number of Eyes Observed, - (Normal) (Study Day 3): 24 eyes
Number of Eyes Observed, N (nuclear cataract) (Study Day 3): 0 eyes
Number of Eyes Observed, S (snowflake) (Study Day 3): 0 eyes
Number of Eyes Observed, ± (Study Day 3): 0 eyes
% of Total Eyes, + (vacuole) (Study Day 4): 0%
% of Total Eyes, - (Normal) (Study Day 4): 100.0%
% of Total Eyes, N (nuclear cataract) (Study Day 4): 0%
% of Total Eyes, S (snowflake) (Study Day 4): 0%
Number of Eyes Observed, + (vacuole) (Study Day 4): 0 eyes
Number of Eyes Observed, - (Normal) (Study Day 4): 24 eyes
Number of Eyes Observed, N (nuclear cataract) (Study Day 4): 0 eyes
Number of Eyes Observed, S (snowflake) (Study Day 4): 0 eyes
Number of Eyes Observed, ± (Study Day 4): 0 eyes
% of Total Eyes, + (vacuole) (Study Day 5): 0%
% of Total Eyes, - (Normal) (Study Day 5): 91.7%
% of Total Eyes, N (nuclear cataract) (Study Day 5): 0%
% of Total Eyes, S (snowflake) (Study Day 5): 0%
Number of Eyes Observed, + (vacuole) (Study Day 5): 0 eyes
Number of Eyes Observed, - (Normal) (Study Day 5): 22 eyes
Number of Eyes Observed, N (nuclear cataract) (Study Day 5): 0 eyes
Number of Eyes Observed, S (snowflake) (Study Day 5): 0 eyes
Number of Eyes Observed, ± (Study Day 5): 2 eyes
% of Total Eyes, + (vacuole) (Study Day 6): 0%
% of Total Eyes, - (Normal) (Study Day 6): 62.5%
% of Total Eyes, N (nuclear cataract) (Study Day 6): 0%
% of Total Eyes, S (snowflake) (Study Day 6): 0%
Number of Eyes Observed, + (vacuole) (Study Day 6): 0 eyes
Number of Eyes Observed, - (Normal) (Study Day 6): 15 eyes
Number of Eyes Observed, N (nuclear cataract) (Study Day 6): 0 eyes
Number of Eyes Observed, S (snowflake) (Study Day 6): 0 eyes
Number of Eyes Observed, ± (Study Day 6): 9 eyes
% of Total Eyes, + (vacuole) (Study Day 8): 8.3%
% of Total Eyes, - (Normal) (Study Day 8): 41.6%
% of Total Eyes, N (nuclear cataract) (Study Day 8): 0%
% of Total Eyes, S (snowflake) (Study Day 8): 0%
Number of Eyes Observed, + (vacuole) (Study Day 8): 2 eyes
Number of Eyes Observed, - (Normal) (Study Day 8): 10 eyes
Number of Eyes Observed, N (nuclear cataract) (Study Day 8): 0 eyes
Number of Eyes Observed, S (snowflake) (Study Day 8): 0 eyes
Number of Eyes Observed, ± (Study Day 8): 12 eyes
% of Total Eyes, + (vacuole) (Study Day 10): 25.0%
% of Total Eyes, - (Normal) (Study Day 10): 37.5%
% of Total Eyes, N (nuclear cataract) (Study Day 10): 0%
% of Total Eyes, S (snowflake) (Study Day 10): 0%
Number of Eyes Observed, + (vacuole) (Study Day 10): 6 eyes
Number of Eyes Observed, - (Normal) (Study Day 10): 9 eyes
Number of Eyes Observed, N (nuclear cataract) (Study Day 10): 0 eyes
Number of Eyes Observed, S (snowflake) (Study Day 10): 0 eyes
Number of Eyes Observed, ± (Study Day 10): 9 eyes
% of Total Eyes, + (vacuole) (Study Day 12): 41.6%
% of Total Eyes, - (Normal) (Study Day 12): 29.2%
% of Total Eyes, N (nuclear cataract) (Study Day 12): 0%
% of Total Eyes, S (snowflake) (Study Day 12): 0%
Number of Eyes Observed, + (vacuole) (Study Day 12): 10 eyes
Number of Eyes Observed, - (Normal) (Study Day 12): 7 eyes
Number of Eyes Observed, N (nuclear cataract) (Study Day 12): 0 eyes
Number of Eyes Observed, S (snowflake) (Study Day 12): 0 eyes
Number of Eyes Observed, ± (Study Day 12): 7 eyes
% of Total Eyes, + (vacuole) (Study Day 14): 78.0%
% of Total Eyes, - (Normal) (Study Day 14): 12.5%
% of Total Eyes, N (nuclear cataract) (Study Day 14): 0%
% of Total Eyes, S (snowflake) (Study Day 14): 0%

Source: patent US4464385A, “Treatment of diabetic complications with hydantoins” (Alcon Laboratories, Inc., priority 1982, dated 1984)
